The subject of assay [1] is peritoneal macrophages. The format is cell-based, mouse.
Assay [2] deals with peritoneal macrophages. The settings on record: Trif mutant macrophages; cited from earlier work.
The subject of a further assay is type I IFN. The format is cell-based, mouse. The settings on record: Heedless macrophages, 100 ng/ml, 4 hours.
Another assay relates to IRF-3. The assay can be described thus: Immunoblot analysis of IRF-3 activation in macrophages. Type of assay: cell-based, mouse. Particulars: heedless mutant cells, lipid A 100 ng/ml.
The test system of the next assay is NF-κB, ERK1 and ERK2. Description: Immunoblot analysis of IκB and ERK (p42/44) phosphorylation in macrophages. Type of assay: cell-based, mouse. Particulars: Heedless macrophages, lipid A 100 ng/ml.

As to MALP-2, the “TNF production in response to the inducer: effect of the Heedless mutation” value with peritoneal macrophages [1] is “partial impairment of the response”.
The same measure, in the same setting: to Pam2CSK4 belongs “partial impairment of the response”.
Still for that read-out and setting: to Pam3CSK4 belongs “normal”.
Turning to lipid A, in the assay with peritoneal macrophages [2], the “lipid A-induced TNF production” value is “rather severe impairment”. Besides, the “signaling via the MyD88-independent pathway (type I IFN production): effect of the Heedless mutation” value in the assay on type I IFN is given as “prevented”. In the assay on IRF-3, the “formation of the IRF-3 phosphodimer” value is listed as “not detected”. The “activation of NF-κB and phosphorylation of ERK1 and ERK2” value in the assay on NF-κB, ERK1 and ERK2 was “occurred normally”.
Regarding lipoteichoic acid, the “TNF production in response to the inducer: effect of the Heedless mutation” value in the assay with peritoneal macrophages [1] is “partial impairment of the response”.
The same measure, in the same setting: under poly IC stands “normal”.

The record behind these values is patent publication US20110214194A1 (priority 2005, published 2011).
